The record followed here is US12473295B2, “Substituted straight chain spiro derivatives” (Janssen Pharmaceutica NV, priority 2019, dated 2025).

SMILES strings stand for the structures. Where a name gives a salt, the structure may show the parent alone.

The subject of one experiment is KO-52 cells. As to the kind of experiment: Proliferation assay (spheroid growth, 8 days), KO-52 control cell line. Type of experiment: cell-based, human. The conditions noted are these: Homo sapiens, […], read-out: spheroid assay_OneTime KO-52 IC50. The procedure, abridged: (§1)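 8-day spheroid growth in ultra-low attachment plates; seeding 200 cells (MOLM14, OCI-AML3) or 300 (KO-52); DMSO 0.3%. Day-8 imaging, confluence vs DMSO (0%) and top reference dose (baseline); IC50 by variable-slope fit.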

Experiment [1] has as its target menin/MLL (terbium chelate-labeled menin, FITC-MBM1 peptide) (Homo sapiens (Human), UniProt O00255). As to the kind of experiment: Menin/MLL homogenous time-resolved fluorescence (HTRF) assay.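 Further: IC50 from percent inhibition of HTRF signal, normalized between wells without competitor and wells with a saturating competitor that displaces FITC-MBM1 from His-tagged menin.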 Particulars: HTRF-30 min incubation IC50, 30 min incubation. In kind it is binding. A general note: In TR-FRET formats the signal depends on donor and acceptor labels being close together.

The subject of a further experiment is MOLM14 cells. As to the kind of experiment: Proliferation assay (spheroid growth, 8 days), MOLM14.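 Further: spheroid size read as confluence by live-cell imaging, compounds added at a range of concentrations with 0.3% DMSO, DMSO-treated wells = 0%, highest reference dose = low control.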 Type of experiment: cell-based, human. Particulars: Homo sapiens, MOLM-14, […], MOLM14, 8 days; read-out: spheroid assay_OneTime MOLM14 IC50.
The test system of another experiment is OCI-AML3 cells. Kind of experiment: Proliferation assay (spheroid growth, 8 days), OCI-AML3. Type of experiment: cell-based, human. Particulars: Homo sapiens, OCI-AML-3, […], OCI-AML3, 8 days. The method, boiled down: as §1
Another experiment deals with MEIS1 mRNA. As to the kind of experiment: MEIS1 mRNA expression assay (Quantigene Singleplex) in MOLM14 cells.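 Further: MEIS1 transcript levels read by probe hybridization and normalized to RPL28 mRNA, with IC50 fitted to fold changes across a rising compound concentration series.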 In kind it is cell-based, human. The conditions noted are these: Homo sapiens, MOLM-14, 48 h, 48 hours incubation.

Chain of menin/MLL (terbium chelate-labeled menin, FITC-MBM1 peptide) (O00255 other isoform, or with tags, fused parts or gaps): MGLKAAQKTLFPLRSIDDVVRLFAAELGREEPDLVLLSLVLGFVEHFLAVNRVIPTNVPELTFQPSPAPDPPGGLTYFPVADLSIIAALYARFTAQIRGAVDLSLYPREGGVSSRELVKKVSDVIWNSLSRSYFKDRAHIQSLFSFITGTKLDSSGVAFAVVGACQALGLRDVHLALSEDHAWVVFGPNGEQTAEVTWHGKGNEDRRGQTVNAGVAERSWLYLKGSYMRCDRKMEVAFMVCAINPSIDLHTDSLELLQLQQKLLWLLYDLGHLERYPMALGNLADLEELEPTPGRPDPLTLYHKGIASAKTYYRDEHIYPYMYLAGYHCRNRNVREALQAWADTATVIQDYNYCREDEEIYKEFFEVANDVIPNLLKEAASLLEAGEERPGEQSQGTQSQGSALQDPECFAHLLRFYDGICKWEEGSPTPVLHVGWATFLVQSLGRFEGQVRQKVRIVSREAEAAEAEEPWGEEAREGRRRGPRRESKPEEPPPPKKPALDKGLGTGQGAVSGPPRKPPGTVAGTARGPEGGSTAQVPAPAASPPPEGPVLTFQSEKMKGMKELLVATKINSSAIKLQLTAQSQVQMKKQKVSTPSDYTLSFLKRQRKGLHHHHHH

For orientation: IC50 means the concentration needed to halve the response being measured. On to `CCN(C(=O)c1cc(F)ccc1Oc1nncnc1N1CCC2(C1)CN([C@H](C[C@@H](O)CN(C)C(C)C)C(C)C)C2)C(C)C` (single isomer, unassigned) [Compound 323, N-ethyl-5-fluoro-2-((5-(2-((3*R,5*R)-5-hydroxy-6-(isopropyl(methyl)amino)-2-methylhexan-3-yl)-2,6-diazaspiro[3.4]octan-6-yl)-1,2,4-triazin-6-yl)oxy)-N-isopropylbenzamide fumarate], for which the 50% inhibitory concentration (IC50) in the experiment with KO-52 cells stood at 13.4 µM; in experiment [1] it was 0.49 nM; in the experiment on MOLM14 cells, 110 nM; in the experiment with OCI-AML3 cells, 170 nM; with MEIS1 mRNA, 62 nM.

With `CCNCC[C@H](C(C)C)N1CC2(CCN(c3ncnnc3Oc3ccc(F)cc3C(=O)N(CC)C(C)C)C2)C1` (single isomer, unassigned) [Compound 272, (*R)—N-ethyl-2-((5-(2-(1-(ethylamino)-4-methylpentan-3-yl)-2,6-diazaspiro[3.4]octan-6-yl)-1,2,4-triazin-6-yl)oxy)-5-fluoro-N-isopropylbenzamide formate], the half-inhibitory concentration (IC50) was greater than 15 µM with KO-52 cells; 0.58 nM in experiment [1]; 130 nM with MOLM14 cells; 440 nM in the experiment on OCI-AML3 cells; 170 nM in the experiment with MEIS1 mRNA.

Regarding `CCN(C(=O)c1cc(F)ccc1Oc1nncnc1N1CCC2(C1)CN([C@H](CCCN(C)C[C@H](C)C(=O)NC)C(C)C)C2)C(C)C` [Compound 197, N-ethyl-5-fluoro-N-isopropyl-2-((5-(2-((R)-2-methyl-6-(methyl((S)-2-methyl-3-(methylamino)-3-oxopropyl)amino)hexan-3-yl)-2,6-diazaspiro[3.4]octan-6-yl)-1,2,4-triazin-6-yl)oxy)benzamide fumarate], the concentration for half-maximal inhibition (IC50) in the experiment on KO-52 cells is greater than 15 µM; in experiment [1], 0.3 nM; in the experiment with MOLM14 cells, 45 nM; with OCI-AML3 cells, 36 nM; with MEIS1 mRNA, 36 nM.

Regarding `CCCN(C)CCC[C@@H](C(C)C)N1CC2(CCN(c3ncnnc3Oc3ccc(F)cc3C(=O)N(CC)C(C)C)C2)C1` (single isomer, unassigned) [Compound 128, (*S)—N-ethyl-5-fluoro-N-isopropyl-2-((5-(2-(2-methyl-6-(methyl(propyl)amino)hexan-3-yl)-2,6-diazaspiro[3.4]octan-6-yl)-1,2,4-triazin-6-yl)oxy)benzamide fumarate], the 50% inhibitory concentration (IC50) in the experiment with KO-52 cells is 11.4 µM; in experiment [1] it was 1.64 nM; with MOLM14 cells it was 630 nM; in the experiment on OCI-AML3 cells it was 1990 nM; with MEIS1 mRNA, roughly 680 nM.

In the case of `CCN(C(=O)c1cc(F)ccc1Oc1nncnc1N1CCC2(C1)CN([C@H](CCCNC[C@H](O)COC)C(C)C)C2)C(C)C` [Compound 284, N-ethyl-5-fluoro-2-((5-(2-((R)-6-(((S)-2-hydroxy-3-methoxypropyl)amino)-2-methylhexan-3-yl)-2,6-diazaspiro[3.4]octan-6-yl)-1,2,4-triazin-6-yl)oxy)-N-isopropylbenzamide formate], the 50% inhibitory concentration (IC50) in the experiment with KO-52 cells was greater than 15 µM; in experiment [1], roughly 0.36 nM; in the experiment on MOLM14 cells, 23 nM; with OCI-AML3 cells, 73 nM; with MEIS1 mRNA, 50 nM.

Consider `CCN(C(=O)c1cc(F)ccc1Oc1nncnc1N1CCC2(C1)CN([C@H](CCCN(C)CCO)C(C)C)C2)C(C)C` [Compound 259, (R)-N-ethyl-5-fluoro-2-((5-(2-(6-((2-hydroxyethyl)(methyl)amino)-2-methylhexan-3-yl)-2,6-diazaspiro[3.4]octan-6-yl)-1,2,4-triazin-6-yl)oxy)-N-isopropylbenzamide fumarate], for which the 50% inhibitory concentration (IC50) with KO-52 cells was greater than 15 µM; in experiment [1], 0.16 nM; in the experiment with MOLM14 cells, 46 nM; with OCI-AML3 cells, 250 nM; in the experiment on MEIS1 mRNA, 65 nM.

Consider `CC(C)[C@@H](C[C@@H](O)CN(C)C)N1CC2(CCN(c3ncnnc3Oc3ccc(F)cc3C(=O)N(C(C)C)C(C)C)C2)C1` (single isomer, unassigned) [Compound 365, 2-((5-(2-((3*R,5*R)-6-(dimethylamino)-5-hydroxy-2-methylhexan-3-yl)-2,6-diazaspiro[3.4]octan-6-yl)-1,2,4-triazin-6-yl)oxy)-5-fluoro-N,N-diisopropylbenzamide fumarate], for which the IC50 with KO-52 cells is greater than 15 µM; in experiment [1] it was 0.097 nM; in the experiment on MOLM14 cells, 11 nM; with OCI-AML3 cells it was 37 nM; in the experiment with MEIS1 mRNA it was 10 nM.

As to `CCN(C(=O)c1cc(F)ccc1Oc1nncnc1N1CCC2(C1)CN([C@H](CCCN(C)C[C@H](C)OC)C(C)C)C2)C(C)C` (single isomer, unassigned) [Compound 251, N-ethyl-5-fluoro-N-isopropyl-2-((5-(2-((R)-6-(((*S)-2-methoxypropyl)(methyl)amino)-2-methylhexan-3-yl)-2,6-diazaspiro[3.4]octan-6-yl)-1,2,4-triazin-6-yl)oxy)benzamide oxalate], the IC50 in the experiment with KO-52 cells stood at 3.9 µM; in experiment [1] it was 0.18 nM; with MOLM14 cells, 52 nM; with OCI-AML3 cells it was 130 nM; in the experiment with MEIS1 mRNA, 19 nM.

With `CCN(C(=O)c1cc(F)ccc1Oc1nncnc1N1CCC2(C1)CN(C(CC(C)(O)CN(C)CCOC)C(C)C)C2)C(C)C` (stereo not drawn) [Compound 382, N-ethyl-5-fluoro-2-((5-(2-(5-hydroxy-6-((2-methoxyethyl)(methyl)amino)-2,5-dimethylhexan-3-yl)-2,6-diazaspiro[3.4]octan-6-yl)-1,2,4-triazin-6-yl)oxy)-N-isopropylbenzamide fumarate], the IC50 was 11.8 µM in the experiment with KO-52 cells; 0.41 nM in experiment [1]; 140 nM in the experiment on MOLM14 cells; 400 nM with OCI-AML3 cells; 150 nM in the experiment with MEIS1 mRNA.

On to `CC(C)[C@@H](CCCN(C)C[C@H](C)C(N)=O)N1CC2(CCN(c3ncnnc3Oc3ccc(F)cc3C(=O)N(C(C)C)C(C)C)C2)C1` (single isomer, unassigned) [Compound 205, 2-((5-(2-((*R)-6-(((S)-3-amino-2-methyl-3-oxopropyl)(methyl)amino)-2-methylhexan-3-yl)-2,6-diazaspiro[3.4]octan-6-yl)-1,2,4-triazin-6-yl)oxy)-5-fluoro-N,N-diisopropylbenzamide fumarate], for which the half-inhibitory concentration (IC50) is greater than 15 µM in the experiment on KO-52 cells; 0.21 nM in experiment [1]; 29 nM in the experiment on MOLM14 cells; 43 nM in the experiment with OCI-AML3 cells; 35 nM in the experiment on MEIS1 mRNA.

For `CCN(C(=O)c1cc(F)ccc1Oc1nncnc1N1CCC2(C1)CN([C@H](CCNC(C)C)C(C)C)C2)C(C)C` (single isomer, unassigned) [Compound 229, (*R)—N-ethyl-5-fluoro-N-isopropyl-2-((5-(2-(1-(isopropylamino)-4-methylpentan-3-yl)-2,6-diazaspiro[3.4]octan-6-yl)-1,2,4-triazin-6-yl)oxy)benzamide fumarate], the IC50 in the experiment on KO-52 cells is greater than 15 µM; in experiment [1], 0.37 nM; with MOLM14 cells it was 320 nM; in the experiment with OCI-AML3 cells, 870 nM; in the experiment on MEIS1 mRNA, 360 nM.

Regarding `CCN(C(=O)c1cc(F)ccc1Oc1nncnc1N1CCC2(C1)CN([C@H](CCCN(C)[C@@H](CO)COC)C(C)C)C2)C(C)C` [Compound 167, N-ethyl-5-fluoro-2-((5-(2-((R)-6-(((S)-1-hydroxy-3-methoxypropan-2-yl)(methyl)amino)-2-methylhexan-3-yl)-2,6-diazaspiro[3.4]octan-6-yl)-1,2,4-triazin-6-yl)oxy)-N-isopropylbenzamide fumarate], the half-maximal inhibitory concentration (IC50) in the experiment on KO-52 cells is greater than 15 µM; in experiment [1], 0.16 nM; in the experiment with MOLM14 cells, 17 nM; with OCI-AML3 cells it was 65 nM; in the experiment with MEIS1 mRNA, 18 nM.
